Consider 29 compounds from patent US10005774B2, “Syk inhibitors” (Gilead Sciences, Inc., priority 2013, dated 2018).

Where “and” joins values, the source holds several entries; their conditions need not be identical. Equal values may be shown once.

For orientation: IC50 means the concentration that inhibits the measured activity by half.

One assay addresses Syk (Homo sapiens, UniProt P43405). In words: High Throughput Syk Biochemical Assay (KinEASE TR-FRET). The following applies: TABLE D, 20 μM ATP, 1 μM biotinylated peptide, 0.015 nM Syk, 30 min at room temperature, read-out: IC50. As to the method: High Throughput Syk Biochemical Assay
Syk activity was measured using KinEASE (Cisbio), a time-resolved fluorescence resonance energy transfer (TR-FRET) immunoassay. In this assay. Syk-catalyzes the phosporylation of a XL665-labeled peptide substrate. Europium conjugated phospho-tyrosine specific antibody binds the resulting phosphorylated peptide. Formation of phosphorylated peptide is quantified by TR-FRET with Europium as the donor and XL665 the acceptor in a 2-step endpoint assay. In brief, test compounds serially diluted in DMSO were delivered into Corning white, low volume, non-binding 384 well plates using the Echo 550 acoustic liquid dispenser (Labcyte®). Syk enzyme and substrates were dispensed into assay plates using a Multi-Flo (Bio-Tek Instruments). […] Percent inhibition was calculated as follows: % Inhibition=100×(RatioSample−Ratio0% Inhibition)/(Ratio100% Inhibition−Ratio0% Inhibition)
Background: Time-resolved FRET reads energy transfer from a long-lived donor to a nearby acceptor.
Regarding `C[C@@H](Oc1nc(-c2ccc3c(c2)C(=O)NCCO3)cc2ncn(C)c12)[C@H]1CNC(=O)C1` [7-(3-methyl-4-((R)-1-((R)-5-oxopyrrolidin-3-yl)ethoxy)-3H-imidazo[4,5-c]pyridin-6-yl)-3,4-dihydrobenzo[f][1,4]oxazepin-5(2H)-one], the IC50 came to 30.6 nM.
Still for that read-out and setting: the result for `COc1ccc(-c2cc3nc(C)n(C)c3c(O[C@H](C)[C@H]3CNC(=O)C3)n2)cc1OC` [(4R)-4-((1R)-1-(6-(3,4-dimethoxyphenyl)-2,3-dimethyl-3a,7a-dihydro-3H-imidazo[4,5-c]pyridin-4-yloxy)ethyl)pyrrolidin-2-one] reads 25.4 nM; that for `COc1ccc(-c2cc3ncn(CC(F)F)c3c(O[C@H](C)[C@H]3CNC(=O)C3)n2)cc1OC` [(R)-4-((R)-1-(3-(2,2-difluoroethyl)-6-(3,4-dimethoxyphenyl)-3H-imidazo[4,5-c]pyridin-4-yloxy)ethyl)pyrrolidin-2-one], 19.5 nM; that for `COc1ccc(-c2cc3nc(C)n(C(F)F)c3c(O[C@H](C)[C@H]3CNC(=O)C3)n2)cc1OC` [(R)-4-((R)-1-(3-(difluoromethyl)-6-(3,4-dimethoxyphenyl)-2-methyl-3H-imidazo[4,5-c]pyridin-4-yloxy)ethyl)pyrrolidin-2-one], 50.8 nM.
Still for that read-out and setting: the result for `COc1ccc(-c2cc3ncn(C(F)F)c3c(O[C@H](C)[C@H]3CNC(=O)C3)n2)cc1OC` [(R)-4-((R)-1-(3-(difluoromethyl)-6-(3,4-dimethoxyphenyl)-3H-imidazo[4,5-c]pyridin-4-yloxy)ethyl)pyrrolidin-2-one] reads 1.1 nM; that for `C[C@@H](Oc1nc(-c2ccc(N3CCOCC3)cc2)cc2ncn(C(F)F)c12)[C@H]1CNC(=O)C1` [(R)-4-((R)-1-(3-(difluoromethyl)-6-(4-morpholinophenyl)-3H-imidazo[4,5-c]pyridin-4-yloxy)ethyl)pyrrolidin-2-one], 1.55 nM and 1.25 nM; that for `COc1ccc(-c2cc3ncn(C4CCC4)c3c(O[C@H](C)[C@H]3CNC(=O)C3)n2)cc1OC` [(R)-4-((R)-1-(3-cyclobutyl-6-(3,4-dimethoxyphenyl)-3H-imidazo[4,5-c]pyridin-4-yloxy)ethyl)pyrrolidin-2-one], 23.5 nM.
On to `COc1ccc(-c2cc3nc(C)n(C4CC4)c3c(O[C@H](C)[C@H]3CNC(=O)C3)n2)cc1OC` [(R)-4-((R)-1-(3-cyclopropyl-6-(3,4-dimethoxyphenyl)-2-methyl-3H-imidazo[4,5-c]pyridin-4-yloxy)ethyl)pyrrolidin-2-one], for which the IC50 came to 95.8 nM.
On the same count and under the same terms, the result for `COc1ccc(-c2cc3ncn(C4CC4)c3c(O[C@H](C)[C@H]3CNC(=O)C3)n2)cc1OC` [(R)-4-((R)-1-(3-cyclopropyl-6-(3,4-dimethoxyphenyl)-3H-imidazo[4,5-c]pyridin-4-yloxy)ethyl)pyrrolidin-2-one] reads 1.6 nM.
The same measure, in the same setting: the result for `C[C@@H](Oc1nc(-c2cnn(CC(F)(F)F)c2)cc2ncn(C)c12)[C@H]1CNC(=O)C1` [(R)-4-((R)-1-(3-methyl-6-(1-(2,2,2-trifluoroethyl)-1H-pyrazol-4-yl)-3H-imidazo[4,5-c]pyridin-4-yloxy)ethyl)pyrrolidin-2-one] reads 20.8 nM; that for `C[C@@H](Oc1nc(-c2cnn(C3COC3)c2)cc2ncn(C)c12)[C@H]1CNC(=O)C1` [(R)-4-((R)-1-(3-methyl-6-(1-(oxetan-3-yl)-1H-pyrazol-4-yl)-3H-imidazo[4,5-c]pyridin-4-yloxy)ethyl)pyrrolidin-2-one], 23.5 nM; that for `C[C@@H](Oc1nc(-c2cnn(C3CCOCC3)c2)cc2ncn(C)c12)[C@H]1CNC(=O)C1` [(R)-4-((R)-1-(3-methyl-6-(1-(tetrahydro-2H-pyran-4-yl)-1H-pyrazol-4-yl)-3H-imidazo[4,5-c]pyridin-4-yloxy)ethyl)pyrrolidin-2-one], 10.2 nM.
Regarding `C[C@@H](Oc1nc(-c2cnn(C)c2)cc2ncn(C)c12)[C@H]1CNC(=O)C1` [(R)-4-((R)-1-(3-methyl-6-(1-methyl-1H-pyrazol-4-yl)-3H-imidazo[4,5-c]pyridin-4-yloxy)ethyl)pyrrolidin-2-one], the IC50 was found to be 24.3 nM.
The same measure, in the same setting: the value for `COc1cc(-c2cc3ncn(C)c3c(O[C@H](C)[C@H]3CNC(=O)C3)n2)cc(OC)c1OC` [(R)-4-((R)-1-(3-methyl-6-(3,4,5-trimethoxyphenyl)-3H-imidazo[4,5-c]pyridin-4-yloxy)ethyl)pyrrolidin-2-one] was 5.26 nM; that for `C[C@@H](Oc1nc(-c2cccc(S(C)(=O)=O)c2)cc2ncn(C)c12)[C@H]1CNC(=O)C1` [(R)-4-((R)-1-(3-methyl-6-(3-(methylsulfonyl)phenyl)-3H-imidazo[4,5-c]pyridin-4-yloxy)ethyl)pyrrolidin-2-one] was 42.5 nM.
Regarding `C[C@@H](Oc1nc(-c2cccc(N3CCOCC3)c2)cc2ncn(C)c12)[C@H]1CNC(=O)C1` [(R)-4-((R)-1-(3-methyl-6-(3-morpholinophenyl)-3H-imidazo[4,5-c]pyridin-4-yloxy)ethyl)pyrrolidin-2-one], the IC50 amounted to 102 nM.
Same read-out and setting: the result for `C[C@@H](Oc1nc(-c2ccc(N3CCN(S(C)(=O)=O)CC3)cc2)cc2ncn(C)c12)[C@H]1CNC(=O)C1` [(R)-4-((R)-1-(3-methyl-6-(4-(4-(methylsulfonyl)piperazin-1-yl)phenyl)-3H-imidazo[4,5-c]pyridin-4-yloxy)ethyl)pyrrolidin-2-one] reads 4.46 nM; that for `C[C@@H](Oc1nc(-c2ccc(N3CCN(C4COC4)CC3)cc2)cc2ncn(C)c12)[C@H]1CNC(=O)C1` [(R)-4-((R)-1-(3-methyl-6-(4-(4-(oxetan-3-yl)piperazin-1-yl)phenyl)-3H-imidazo[4,5-c]pyridin-4-yloxy)ethyl)pyrrolidin-2-one], 8.21 nM.

Still in this assay, the particulars now being: table 'ALL NEW COMPOUNDS IN 2014', 20 μM ATP, 1 μM biotinylated peptide, 0.015 nM Syk, 30 min at room temperature, read-out: Syk IC50.
As to `C[C@@H](Oc1cc(-c2ccc(N3CCN(C4COC4)CC3)c(C#N)c2)cc2ncn(C3CC3)c12)[C@H]1CNC(=O)C1` [5-(1-cyclopropyl-7-((R)-1-((R)-5-oxopyrrolidin-3-yl)ethoxy)-1H-benzo[d]imidazol-5-yl)-2-(4-(oxetan-3-yl)piperazin-1-yl)benzonitrile], the IC50 was 3.2 nM.
The same measure, in the same setting: the value for `C[C@@H](Oc1nc(-c2ccc(N3CCN(C4COC4)CC3)c(C#N)c2)cc2ncn(C3CC3)c12)[C@H]1CNC(=O)C1` [5-(3-cyclopropyl-4-((R)-1-((R)-5-oxopyrrolidin-3-yl)ethoxy)-3H-imidazo[4,5-c]pyridin-6-yl)-2-(4-(oxetan-3-yl)piperazin-1-yl)benzonitrile] was 5.21 nM; that for `C[C@@H](Oc1nc(-c2cnc3c(c2)N(C)C(=O)C3(C)C)cc2ncn(C3CC3)c12)[C@H]1CNC(=O)C1` [6-(3-cyclopropyl-4-((R)-1-((R)-5-oxopyrrolidin-3-yl)ethoxy)-3H-imidazo[4,5-c]pyridin-6-yl)-1,3,3-trimethyl-1H-pyrrolo[3,2-b]pyridin-2(3H)-one] was 8.85 nM.
The same measure, in the same setting: the result for `C[C@@H](Oc1nc(-c2ccc3c(c2)NC(=O)C32CCN(S(C)(=O)=O)CC2)cc2ncn(C3CC3)c12)[C@H]1CNC(=O)C1` [6-(3-cyclopropyl-4-((R)-1-((R)-5-oxopyrrolidin-3-yl)ethoxy)-3H-imidazo[4,5-c]pyridin-6-yl)-1′-(methylsulfonyl)spiro[indoline-3,4′-piperidin]-2-one] reads 1.08 nM.
Consider `C[C@@H](Oc1nc(-c2ccc3c(c2)NC(=O)C3)cc2ncn(C3CC3)c12)[C@H]1CNC(=O)C1` [6-(3-cyclopropyl-4-((R)-1-((R)-5-oxopyrrolidin-3-yl)ethoxy)-3H-imidazo[4,5-c]pyridin-6-yl)indolin-2-one], for which the IC50 was 1.75 nM.
Still for that read-out and setting: the result for `C[C@@H](Oc1nc(-c2ccc3c(c2)N(C)C(=O)C32CN(C)C2)cc2ncn(C3CC3)c12)[C@H]1CNC(=O)C1` [6′-(3-cyclopropyl-4-((R)-1-((R)-5-oxopyrrolidin-3-yl)ethoxy)-3H-imidazo[4,5-c]pyridin-6-yl)-1,1′-dimethylspiro[azetidine-3,3′-indolin]-2′-one] reads 7.55 nM; that for `C[C@@H](Oc1nc(-c2ccc(N3CC4CC(C3)N4C3COC3)cc2)cc2ncn(C3CC3)c12)[C@H]1CNC(=O)C1` [(4R)-4-((1R)-1-((3-cyclopropyl-6-(4-(6-(oxetan-3-yl)-3,6-diazabicyclo[3.1.1]heptan-3-yl)phenyl)-3H-imidazo[4,5-c]pyridin-4-yl)oxy)ethyl)pyrrolidin-2-one], 2.69 nM; that for `C[C@@H](Oc1cc(-c2ccc(N3CC4CC(C3)O4)cn2)cc2ncn(C3CC3)c12)[C@H]1CNC(=O)C1` [(4R)-4-((1R)-1-((5-(5-(6-oxa-3-azabicyclo[3.1.1]heptan-3-yl)pyridin-2-yl)-1-cyclopropyl-1H-benzo[d]imidazol-7-yl)oxy)ethyl)pyrrolidin-2-one], 5.57 nM.
Still for that read-out and setting: the value for `C[C@@H](Oc1nc(-c2ccc(N3CC4CC(C3)N4)cc2)cc2ncn(C3CC3)c12)[C@H]1CNC(=O)C1` [(4R)-4-((1R)-1-((6-(4-(3,6-diazabicyclo[3.1.1]heptan-3-yl)phenyl)-3-cyclopropyl-3H-imidazo[4,5-c]pyridin-4-yl)oxy)ethyl)pyrrolidin-2-one] was 2.29 nM.
On the same count and under the same terms, the value for `C[C@@H](Oc1nc(-c2ccc(N3CC4CC(C3)O4)cc2)cc2ncn(C3CC3)c12)[C@H]1CNC(=O)C1` [(4R)-4-((1R)-1-((6-(4-(6-oxa-3-azabicyclo[3.1.1]heptan-3-yl)phenyl)-3-cyclopropyl-3H-imidazo[4,5-c]pyridin-4-yl)oxy)ethyl)pyrrolidin-2-one] was 3.21 nM; that for `O=C1C[C@@H](COc2nc(-c3ccc(N4CCN(C5COC5)CC4)cc3)cc3ncn(C4CC4)c23)CN1` [(R)-4-(((3-cyclopropyl-6-(4-(4-(oxetan-3-yl)piperazin-1-yl)phenyl)-3H-imidazo[4,5-c]pyridin-4-yl)oxy)methyl)pyrrolidin-2-one] was 65.3 nM.
